Laboratory results published in patent US7879825B2, “Derivatives of [2-(8,9-dioxo-2,6-diazabicyclo[5.2.0]non-1(7)-en-2-yl)alkyl] phosphonic acid and methods of use thereof” (Wyeth LLC, priority 2003, dated 2011).
Marks after values point to notes of the source that are not given here.

Legend:
[1] = test system: PGE2-induced thermal hypersensitivity; assay: Reversal of prostaglandin E2 (PGE2)-induced thermal hypersensitivity, warm-water tail withdrawal; assay type: in vivo, Sprague-Dawley rats; conditions: single oral (PO) dose before PGE2 injection into tail, assessed 30 min after PGE2, SEM in parentheses
Description: The compounds of the present invention were evaluated for their effectiveness to treat pain. […] The test methods used herein have been used by others skilled in the art to evaluate the effectiveness of compounds for relieving pain. See e.g., Bennett G J and Xie T K, A peripheral mononeuropathy in rat produces disorders of pain sensation like those seen in man, Pain 33: 87-107 (1988); Chaplan S R, Bach […], Chung J M and Yaksh T L, Quantitative assessment of tactile allodynia in the rat paw, J. Neurosci. Methods 53: 55-63 (1994); and Mosconi T and Kruger L, Fixed-diameter polyethylene cuffs applied to the rat sciatic nerve induce a painful neuropathy: ultrastructural morphometric analysis of axonal alterations Pain 64: 37-57 (1996). Individually housed Sprague-Dawley rats had free access to rat chow and water. A 12-h light/12-h dark cycle was in effect (lights on from 6:00 am to 6:00 pm). Animal maintenance and research were conducted in accordance with the guidelines provided by the National Institutes of Health Committee on Laboratory Animal Resources. These subjects were used in the tests below. The terminal 10 cm of the tail was placed into a thermos bottle containing water warmed to 38, 42, 46, 50 or 54° C. The latency in seconds for the animal to remove the tail from the water was used as a measure of nociception. […] Temperature-effect curves were generated before (baseline) and 30 minutes after the PGE2 injection. […] The ability of compounds to reverse PGE2-induced thermal hypersensitivity was assessed using a single dose time-course procedure. […] sensitivity was assessed 30 min after PGE2 injection. Data Analysis-The temperature that produced a half-maximal increase in the tail-withdrawal latency (i.e., T10) was calculated from each temperature-effect curve. The T10 was determined by interpolation from a line drawn between the point above and the point below 10 sec on the temperature-effect curve.

Row | SMILES | Reversal of PGE2-induced thermal hypersensitivity, % MPE (±1 SEM) ([1]; 10 mg/kg) | Reversal of PGE2-induced thermal hypersensitivity, % MPE (±1 SEM) ([1]; 30 mg/kg) | melting point
1 | O=c1c2c(c1=O)N(CCP(=O)(O)O)CCCN2 [Comparative 1, [2-(8,9-dioxo-2,6-diazabicyclo[5.2.0]non-1(7)-en-2-yl)ethyl]phosphonic acid, reference compound] | −4.7 (10.6)** % MPE | 44 (9.5) % MPE | 
2 | CC(OC(=O)C1CCCCC1)OP(=O)(CCN1CCCNc2c1c(=O)c2=O)OC(C)OC(=O)C1CCCCC1 (stereo not shown) [Example 4, 7-Cyclohexyl-3-{2-[8,9-dioxo-2,6-diazabicyclo[5.2.0]non-1(7)-en-2-yl]ethyl}-1,5-dimethyl-3-oxido-7-oxo-2,4,6-trioxa-3-phosphahept-1-yl cyclohexanecarboxylate] |  | 78.9 (5.8) % MPE | 
3 | O=C(OCOP(=O)(CCN1CCCNc2c1c(=O)c2=O)OCOC(=O)C1CCCCC1)C1CCCCC1 [Example 6, 7-Cyclohexyl-3-{2-[8,9-dioxo-2,6-diazabicyclo[5.2.0]non-1(7)-en-2-yl]ethyl}-3-oxido-7-oxo-2,4,6-trioxa-3-phosphahept-1-yl cyclohexanecarboxylate] |  | 16.8 (6.8) % MPE | 64 to 65 °C
4 | CC(C)(C)C(=O)OCOC(CCN1CCCNc2c1c(=O)c2=O)(O[PH2]=O)OC(=O)C(C)(C)C (stereo not shown) [Example 3, 2,2-Dimethyl-propionic acid (2,2-dimethyl-propionyloxymethoxy)-[2-(8,9-dioxo-2,6-diaza-bicyclo[5.2.0]non-1(7)-en-2-yl)-ethyl]-phosphinoyloxymethyl ester] |  | 87.6 (3.3) % MPE | 
5 | CC(C)OC(=O)OCOP(=O)(CCN1CCCNc2c1c(=O)c2=O)OCOC(=O)OC(C)C [Example 7, [2-(8,9-Dioxo-2,6-diaza-bicyclo[5.2.0]non-1-(7)-en-2-yl)-ethyl]-phosphonic acid diiso propoxycarbonyloxymethyl ester] | 47.0 (12.6) % MPE | 77.5 (6.7) % MPE | 
6 | CCCC(CCC)C(=O)OCOP(=O)(CCN1CCCNc2c1c(=O)c2=O)OCOC(=O)C(CCC)CCC [Example 2, 3-{2-[8,9-Dioxo-2,6-diazabicyclo[5.2.0]non-1(7)-en-2-yl]ethyl}-3-oxido-7-oxo-8-propyl-2,4,6-trioxa-3-Phosphaundec-1-yl 2-propylpentanoate] | 45.6 (13.9) % MPE | 76.5 (3.3) % MPE | 
7 | CC(OC(=O)C1CCCCC1)OP(=O)(CCN1CCCNc2c1c(=O)c2=O)OC(C)OC(=O)C1CCCCC1 (stereo not shown) [Example 5, 7-cyclohexyl-3-{2-[8,9-dioxo-2,6-diazabicyclo[5.2.0]non-1(7)-en-2-yl]ethyl}-1,5-dimethyl-3-oxido-7-oxo-2,4,6-trioxa-3-phosphahept-1-yl cyclohexanecarboxylate] |  | 55.9 (9.8) % MPE | 
8 | O=C(OCOP(=O)(CCN1CCCNc2c1c(=O)c2=O)OCOC(=O)c1ccccc1)c1ccccc1 [Example 1, 3-{2-[8,9-Dioxo-2,6-diazabicyclo[5.2.0]non-1(7)-en-2-yl]ethyl}-3-oxido-7-oxo-7-phenyl-2,4,6-trioxa-3-phosphahept-1-yl benzoate] | 57.2 (4.7) % MPE | 81 (3.4) % MPE | 
